Here are results for one compound from paper PMC12370890 (Nature Communications, 2025).

In the assay the test system is Tcie612. The assay can be described thus: GC-MS of hexane extract, Michaelis-Menten fit. It is filed as biochemical, Trichoderma citrinoviride. The settings on record: 25 mM MgCl2, 50 mM Tris-HCl pH 7.5, 100 mM KCl, 5 mM DTT, 5 mM hydroxypropyl-β-cyclodextrin, 30 °C, 30 min.

What is called Km is the substrate concentration at which the rate is half of its maximum.

In the case of `CC(C)=CCC/C(C)=C/CC/C(C)=C/CC/C(C)=C/COP(=O)(O)OP(=O)(O)O` [GGPP], the Km is 86.1 ± 8.19 µM.
